The record followed here is publication PMC9694926, “Novel Uracil-Based Inhibitors of Acetylcholinesterase with Potency for Treating Memory Impairment in an Animal Model of Alzheimer’s Disease” (Molecules, 2022).

The target of data set [1] is T1, hAChE (Homo sapiens, UniProt P22303).
T1 construct: purchased Sigma-Aldrich
The data set can be described thus: Inhibition constants and inhibition type for hAChE (Dixon and Cornish-Bowden plots). The format is biochemical. The procedure:
(§1) To study the mechanism of hAChE and hBChE inhibition by compound 2c, the inhibition constants (Ki) were determined. Experiments were performed using three different concentrations of acetylthiocholine (ATC) as substrate for hAChE or butyrylthiocholine (BTC) for hBChE. Analysis of Dixon and Cornish-Bowden plots established that hAChE and hBChE inhibition was of mixed type, with Kci (competitive inhibition) and Kui (uncompetitive) components: Kci = […], Kui = 315 ± 95 pM for hAChE (Figure 3A,B), and Kci = 10.1 ± 3.1 µM, Kui = 24 ± 4.6 µM for hBChE (Figure 3C,D).
(§2) The inhibition constants (Ki) for hAChE and hBChE were determined by Ellman’s method at 412 nm and 25 °C in 0.1M sodium phosphate buffer (pH = 8.0) with various substrate (ATC, BTC) concentrations in the range 0.01–0.1 mM, using UV-1800 Shimadzu (Kyoto, Japan) spectrophotometer. The final enzyme concentration in the assays was in the picomolar range. Controls of active enzyme and substrate spontaneous hydrolysis in the absence of an inhibitor were performed for each substrate concentration. Absorbance change was recorded for 5 min. Inhibition constants were determined from Dixon plot and Cornish-Bowden transformation.

For data set [2], the target named is T1, hAChE. The format is in vitro ADME. Particulars: 0.1 mM, overnight with hAChE, phosphate buffer pH 8.0, 25 °C, NMR. The procedure: There is a possibility that the ester group of the compound 2c can be hydrolyzed by AChE. To test this possibility, the compound 2c (0.1 mM) was incubated overnight with AChE in phosphate buffer (pH 8.0). The same buffer containing compound 2c but without AChE was used as a control. After the end of incubation, the buffer was filtered out of AChE using a centricon-30 ultrafiltration micro-concentrator from Amicon (Millipore Corporation, Billerica, MA, USA) and samples were analyzed by NMR spectroscopy. It was shown that the resonance signals both in the control spectrum and in the spectrum of the residue after AChE treatment are almost the same to those for compound 2c (Supplementary materials, Figures S6, S22 and S41–S44).
The compound 2c was dissolved in ethanol and then in 2 mL of 0.1M sodium phosphate buffer (pH = 8.0) at the final concentration of 0.1 mM. Then, 2.0 units of hAChE were added. The final concentration of ethanol in the buffer was 0.1% vol. The compound 2c was incubated with hAChE overnight at 25 °C. The same volume of buffer containing compound 2c at the concentration of 0.1 mM but without AChE was used as a control. After the end of incubation, the buffer was filtered out of AChE using a centricon-30 ultrafiltration micro-concentrator from Amicon (Millipore Corporation, Billerica, MA, USA). […]

The next data set deals with CD1 mice. The data set can be described thus: Acute toxicity (LD50), intraperitoneal injection. The note with it: i.p. injection. The format is in vivo. The procedure:
All experiments involving animals were performed in accordance with the guidelines set out by the European Union Council Directive 2010/63/EU; the experimental protocols were approved by the Animal Care and Use Committee of the Federal Research Center “Kazan Scientific Center of the Russian Academy of Sciences”. Toxicological experiments were performed using intraperitoneal injection of the various compounds in CD1 mice weighing 20–25 g. Mice were maintained on a 12 h light/dark cycle (light from 7:00 a.m. to 7:00 p.m.) at 20−22 °C and 60−70% relative humidity. Five different doses (determined during preliminary tests) were used with six animals per dose. Animals were observed 14 days after injection, and symptoms of intoxication were recorded. […] LD50 was determined by the method of Weiss. Stock solutions of compounds were prepared in ethanol or water. Compounds were administered intraperitoneally in sterile physiological saline. The concentration of ethanol in physiological saline was 5% vol.

A further data set addresses T2, hBChE (Homo sapiens, UniProt P06276).
T2 construct: hBChE from blood plasma; purchased Sigma-Aldrich; host or cells: human blood plasma
The data set can be described thus: Inhibition constants and inhibition type for hBChE (Dixon and Cornish-Bowden plots). The format is biochemical. The procedure:
as §1, §2

T1 sequence (P22303 32-614): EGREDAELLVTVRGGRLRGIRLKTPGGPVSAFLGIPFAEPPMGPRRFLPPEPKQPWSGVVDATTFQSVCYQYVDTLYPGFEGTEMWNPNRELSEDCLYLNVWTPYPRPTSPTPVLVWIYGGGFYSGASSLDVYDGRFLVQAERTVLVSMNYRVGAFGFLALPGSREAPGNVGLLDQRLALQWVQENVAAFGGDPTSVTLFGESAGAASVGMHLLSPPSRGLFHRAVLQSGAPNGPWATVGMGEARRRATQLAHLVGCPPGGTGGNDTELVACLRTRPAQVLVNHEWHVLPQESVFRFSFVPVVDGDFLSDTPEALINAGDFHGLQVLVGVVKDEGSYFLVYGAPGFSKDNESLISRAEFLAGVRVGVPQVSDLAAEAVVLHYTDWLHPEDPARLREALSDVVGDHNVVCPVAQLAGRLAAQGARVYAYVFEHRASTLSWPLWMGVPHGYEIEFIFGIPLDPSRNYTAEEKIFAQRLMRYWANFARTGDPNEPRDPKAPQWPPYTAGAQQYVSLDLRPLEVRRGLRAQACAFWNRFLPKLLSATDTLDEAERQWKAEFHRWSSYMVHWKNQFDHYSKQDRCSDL
T2 sequence (P06276 29-602): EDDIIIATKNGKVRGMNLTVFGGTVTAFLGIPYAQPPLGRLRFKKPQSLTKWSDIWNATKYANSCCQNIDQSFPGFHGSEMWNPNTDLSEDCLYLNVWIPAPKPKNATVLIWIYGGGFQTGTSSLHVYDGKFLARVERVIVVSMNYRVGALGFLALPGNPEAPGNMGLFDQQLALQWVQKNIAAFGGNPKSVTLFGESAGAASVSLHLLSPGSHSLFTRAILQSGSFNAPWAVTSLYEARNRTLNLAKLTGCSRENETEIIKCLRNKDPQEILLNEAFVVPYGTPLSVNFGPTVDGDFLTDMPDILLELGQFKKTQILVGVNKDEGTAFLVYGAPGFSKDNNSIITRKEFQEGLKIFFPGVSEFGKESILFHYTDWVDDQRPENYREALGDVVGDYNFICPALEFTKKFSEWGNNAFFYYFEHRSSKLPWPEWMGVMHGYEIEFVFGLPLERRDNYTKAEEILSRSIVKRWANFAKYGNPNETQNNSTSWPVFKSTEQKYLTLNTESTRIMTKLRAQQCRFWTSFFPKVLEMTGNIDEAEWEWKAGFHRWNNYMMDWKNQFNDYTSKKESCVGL

Consider `CCN(CCCCCn1c(C)cc(=O)n(CCCCCN(CC)Cc2cccc(C(=O)OC)c2)c1=O)Cc1cccc(C(=O)OC)c1` [2c, 1,3-Bis[5-(meta-methoxycarbonylbenzylethylamino)pentyl]-6-methyluracil], for which the type of inhibition result on hAChE [1] and on hBChE was “mixed type” in each case. The “Kui (uncompetitive)” value on hAChE [1] (substrate ATC) was found to be 315 ± 95 pM; at hBChE (substrate BTC), 24 ± 4.6 µM. Further, on hAChE [2], the “stability in the presence of AChE (hydrolysis of ester groups)” value was “remains stable in the presence of AChE”. Further, the LD50 in the data set with CD1 mice is recorded as 147 mg/kg.

The LD50 is the dose at which mortality reaches 50%.
